This note sets out measurements from US8163909B2, “Substituted hydroxyethyl amine compounds as beta-secretase modulators and methods of use” (Amgen Inc., priority 2007, dated 2012).

In series [1] the target is Beta Secretase enzyme (BACE) (Homo sapiens, UniProt P56817). Put plainly: In vitro enzymatic BACE FRET (fluorescence resonance energy transfer) assay.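 Note: fluorescence read after 1 h with 50 nM quenched peptide substrate spanning the BACE cleavage site, in pH 4.2 acetate buffer containing 10% DMSO and nonionic detergent.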 In kind it is biochemical.
Sequence of Beta Secretase enzyme (BACE) (P56817 46-501): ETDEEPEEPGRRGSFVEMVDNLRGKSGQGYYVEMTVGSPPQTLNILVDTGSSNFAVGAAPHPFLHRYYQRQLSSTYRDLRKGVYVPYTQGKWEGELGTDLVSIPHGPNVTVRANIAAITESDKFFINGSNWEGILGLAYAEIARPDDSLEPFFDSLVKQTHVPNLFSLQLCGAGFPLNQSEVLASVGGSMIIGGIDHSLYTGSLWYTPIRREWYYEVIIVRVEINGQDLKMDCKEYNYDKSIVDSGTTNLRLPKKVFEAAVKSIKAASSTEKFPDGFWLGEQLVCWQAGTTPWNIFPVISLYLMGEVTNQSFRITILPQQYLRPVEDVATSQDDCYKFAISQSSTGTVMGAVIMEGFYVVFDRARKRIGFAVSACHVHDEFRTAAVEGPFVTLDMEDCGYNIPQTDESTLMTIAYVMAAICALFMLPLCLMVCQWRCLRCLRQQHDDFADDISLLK
The target in another series is CYP3A4 (CYP3A) (Homo sapiens, UniProt P08684). Put plainly: in vitro. Conditions: microsomes, pH 7.4.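 Note: inhibition of CYP3A-mediated 1-hydroxymidazolam formation after 10 min incubation with NADPH, quantified by HPLC MS relative to metabolite produced without test compound.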
Sequence of CYP3A4 (CYP3A) (P08684 2-503): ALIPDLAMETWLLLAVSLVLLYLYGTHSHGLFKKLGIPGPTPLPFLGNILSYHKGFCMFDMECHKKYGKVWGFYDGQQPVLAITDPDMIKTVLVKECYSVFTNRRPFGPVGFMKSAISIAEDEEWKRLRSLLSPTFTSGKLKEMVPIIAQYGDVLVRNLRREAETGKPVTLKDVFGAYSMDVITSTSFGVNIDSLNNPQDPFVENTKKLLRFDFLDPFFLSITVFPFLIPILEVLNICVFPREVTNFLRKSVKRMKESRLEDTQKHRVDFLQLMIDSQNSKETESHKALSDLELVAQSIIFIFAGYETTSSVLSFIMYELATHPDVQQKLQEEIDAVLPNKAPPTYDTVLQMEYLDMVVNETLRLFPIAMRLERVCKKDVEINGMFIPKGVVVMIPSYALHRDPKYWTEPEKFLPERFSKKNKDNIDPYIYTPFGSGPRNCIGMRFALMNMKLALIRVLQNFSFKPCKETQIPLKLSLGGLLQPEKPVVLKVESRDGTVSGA
Series [2] in a line: Microsomal stability assay, rat liver microsomes. (In general: Microsomes from liver hold many membrane-bound enzymes, among them those of drug oxidation.)
Series [3] has as its system Aβ40 in conditioned medium of cells stably expressing Amyloid Precursor Protein (APP). The experiment in a line: In vitro BACE cell-based assay (Aβ40 in conditioned medium, sandwich ELISA).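 Note: compounds added as a dilution series, secreted peptide quantified by europium time-resolved fluorescence readout, potency fitted from percent of control versus compound concentration.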 The conditions noted are these: Homo sapiens. In general terms: An ELISA detects its analyte on a solid surface through an enzyme-linked reagent.
A further series deals with CYP2D6 (Homo sapiens, UniProt P10635). The experiment in a line: CYP2D6 inhibition assay (bufuralol, pooled human liver microsomes).
Sequence of CYP2D6 (P10635 whole entry): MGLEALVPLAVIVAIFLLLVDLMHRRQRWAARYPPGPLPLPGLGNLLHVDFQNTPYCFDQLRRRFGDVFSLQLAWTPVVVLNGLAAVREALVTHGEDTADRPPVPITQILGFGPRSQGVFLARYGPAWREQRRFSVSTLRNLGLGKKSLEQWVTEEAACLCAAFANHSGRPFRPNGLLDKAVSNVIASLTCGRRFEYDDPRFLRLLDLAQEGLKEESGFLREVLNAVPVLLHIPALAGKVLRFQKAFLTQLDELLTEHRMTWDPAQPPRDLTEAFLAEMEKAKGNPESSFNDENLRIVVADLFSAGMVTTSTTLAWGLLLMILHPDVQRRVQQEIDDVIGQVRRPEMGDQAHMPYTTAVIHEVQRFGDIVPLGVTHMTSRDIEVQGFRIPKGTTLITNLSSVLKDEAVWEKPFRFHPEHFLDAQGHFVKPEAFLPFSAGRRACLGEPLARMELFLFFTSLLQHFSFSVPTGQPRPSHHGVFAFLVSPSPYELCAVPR
A short description of series [4]: Microsomal stability assay, human liver microsomes.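 Note: pooled human liver microsomes at 0.25 mg/mL with 1 µM compound and NADPH at 37 °C, pH 7.4, for 30 min, unchanged parent quantified by LC-MS/MS against the 0 min sample.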
Setting [5] is: BACE enzyme assay, IC50's in uM, read-out: BACE1 FRET assay.
Setting [6] is: HEK293, HEK cell-based assay, IC50's in uM, read-out: HEK cell assay.
Where [7] appears, read: 2D6 IC50 (uM), CYP enzyme inhibition.
The mark [8] stands for this setting: read-out: BACE1 FRET assay (IC50).
Where [9] appears, read: HEK293, HEK cells, read-out: HEK cell assay (IC50).

Where two headings read alike, the source gives them in different places. Bounds are passed on as bounds.
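Throughout, for RLM: rat liver microsomes (0.25 mg/mL) with about 1 µM compound plus 1 mM NADPH, pH 7.4, 37 °C for 30 min, parent left measured by LC-MS/MS against 0 min.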

`CCOCC(=O)N[C@@H](Cc1ccc(F)c(-c2nccs2)c1)[C@H](O)CN[C@H]1CC2(CCC2)Oc2ncc(CC(C)(C)C)cc21` [compound 904]: the IC50 is 0.004 µM in series [1] (setting [5]); 100 nM on CYP3A4 (CYP3A); 0.062 µM in series [3] (HEK293, cell-based assay, HEK cells, IC50's in uM, read-out: HEK cell assay); 0.5 µM on CYP2D6 (2D6 IC50, CYP enzyme inhibition). In addition, the RLM in series [2] (rat liver microsomal data) came out at 47 µL/min/mg. The compound further had an HLM in series [4] (human liver microsomal data) of 38 µL/min/mg.

Take `C#Cc1cnc2c(c1)[C@@H](NC[C@@H](O)[C@H](Cc1cc(F)cc(-c3nccs3)c1)NC(=O)[C@@H](C)OC)CC1(CCC1)O2` [compound 784]: the IC50 in series [1] (setting [5]) is 0.158 µM; on CYP3A4 (CYP3A), no more than 30 nM; in series [3] (setting [6]), 0.864 µM; at CYP2D6 (setting [7]), 1 µM. The “RLM” value in series [2] (rat liver microsomal data) turned out to be 64 µL/min/mg. Further, in series [4] (human liver microsomal data), the “HLM” value stood at 51 µL/min/mg.

Turning to `COCC(=O)N[C@@H](Cc1cc(-c2nccs2)cc(-c2nccs2)c1)[C@H](O)CN[C@H]1CC2(CCC2)Oc2ncc(CC(C)(C)C)cc21` [compound 839], the IC50 in series [1] (setting [5]) stood at 0.258 µM; against CYP3A4 (CYP3A), 100 nM; in series [3] (setting [6]) it was 0.477 µM; at CYP2D6 (setting [7]), 0.4 µM. Moreover, the “RLM” value in series [2] (rat liver microsomal data) was determined as 57 µL/min/mg. Besides, the “HLM” value in series [4] (human liver microsomal data) is 62 µL/min/mg.

Consider `CC(=O)N[C@@H](Cc1ccc(F)c(-c2ccncc2)c1)[C@H](O)CN[C@H]1CC2(CCC2)Oc2ncc(CC(C)(C)C)cc21` [compound 602], for which the IC50 in series [1] (setting [8]) was 0.023 µM; on CYP3A4 (CYP3A), 160 nM; in series [3] (setting [9]), 0.018 µM; at CYP2D6 (2D6 IC50, CYP2D6 inhibition) it was 0.4 µM. Further, in series [2] (rat liver microsomes), the RLM was found to be 78 µL/min/mg. Further, the HLM in series [4] (human liver microsomes) amounted to 124 µL/min/mg.

`CO[C@H](C)C(=O)N[C@@H](Cc1ccc2c(c1)OCO2)[C@H](O)CN[C@H]1CC2(CCC2)Oc2c1cc(CC(C)C)nc2Cl` [compound 657, (2R)-N-((1S,2R)-1-(1,3-benzodioxol-5-ylmethyl)-3-(((4′S)-8′-chloro-6′-(2-methylpropyl)-3′,4′-dihydrospiro[cyclobutane-1,2′-pyrano[2,3-c]pyridin]-4′-yl)amino)-2-hydroxypropyl)-2-methoxypropanamide]: the IC50 is 0.03 µM in series [1] (setting [8]); 160 nM on CYP3A4 (CYP3A); 0.524 µM in series [3] (setting [9]); 5.3 µM on CYP2D6 (2D6 IC50, CYP2D6 inhibition). Further, the RLM in series [2] (rat liver microsomes) amounted to 178 µL/min/mg. In series [4] (human liver microsomes), the HLM is 96 µL/min/mg.

For the compound `COCC(=O)N[C@@H](Cc1ccccc1)[C@H](O)CN[C@H]1CC2(CCC2)Oc2ccc(C[C@H](C)F)cc21` [compound 611], the IC50 in series [1] (setting [8]) is 0.103 µM; against CYP3A4 (CYP3A) it was 18400 nM; in series [3] (setting [9]) it was 0.116 µM; on CYP2D6 (2D6 IC50, CYP2D6 inhibition), 1.2 µM. This compound yielded an RLM in series [2] (rat liver microsomes) of 775 µL/min/mg. In series [4] (human liver microsomes), this compound had an HLM of 644 µL/min/mg.

In the case of `CO[C@H](C)C(=O)N[C@@H](Cc1ccc2c(c1)OCO2)[C@H](O)CN[C@H]1CC2(CCC2)Oc2ncc(CC(C)(C)F)cc21` [compound 741], the IC50 in series [1] (BACE enzyme assay IC50, read-out: BACE1 FRET assay) was 0.352 µM; at CYP3A4 (CYP3A), no more than 30 nM; in series [3] (HEK293, HEK cell-based assay IC50, read-out: HEK cell assay), 0.329 µM; at CYP2D6 (2D6 IC50 (uM), CYP2D6 inhibition) it was 5 µM. Moreover, in series [2] (rat liver microsomes), the “RLM” value amounted to 76 µL/min/mg. For the same compound, the “HLM” value in series [4] (human liver microsomes) was determined as 25 µL/min/mg.

For the compound `CO[C@H](C)C(=O)N[C@@H](Cc1ccc(F)cc1)[C@H](O)CN[C@H]1CC2(CCC2)Oc2c1cc(CC(C)(C)C)nc2-c1ccncc1` [compound 527], the IC50 amounted to 0.222 µM in series [1] (BACE enzyme assay, read-out: BACE1 FRET assay); 100 nM at CYP3A4 (CYP3A); 1.95 µM in series [3] (HEK293, HEK cells, read-out: HEK cell assay); 0.6 µM against CYP2D6 (setting [7]). Besides, the “RLM” value in series [2] (rat liver microsomal data) was found to be 108 µL/min/mg. Moreover, in series [4] (human liver microsomal data), the “HLM” value came to 33 µL/min/mg.

Regarding `CO[C@H](C)C(=O)N[C@@H](Cc1ccc2c(c1)OCO2)[C@H](O)CN[C@H]1CC2(CCC2)C(=O)c2ncc(CC(C)(C)C)cc21` [compound 626], the IC50 in series [1] (setting [8]) is 0.133 µM; on CYP3A4 (CYP3A), 500 nM; in series [3] (setting [9]), 0.108 µM; on CYP2D6 (2D6 IC50, CYP2D6 inhibition), 14.4 µM. This compound yielded an RLM in series [2] (rat liver microsomes) of 260 µL/min/mg. In addition, the HLM in series [4] (human liver microsomes) turned out to be 153 µL/min/mg.
